Where two headings read alike, the source gives them in different places.
How the values were obtained:
[1] = test system: Pseudomonas aeruginosa A9843A; type: in vivo, mice; conditions: mouse, in vivo
Cl. chauvoei = test: M.I.C. against anaerobic bacteria, Cl. chauvoei; type: cell-based; conditions: strain A9561
Pseudomonas aeruginosa [2] = test: Minimum Inhibitory Concentration, tube dilution, overnight incubation at 37° C.; type: cell-based
[3] = Mouse blood (serum) antibiotic levels after single intramuscular dose; type: in vivo; conditions: im, mice, 40 mg./kg. i.m., read-out: Blood Level
Experimental: Serum antibiotic levels from mice administered a single intramuscular dose of 40 mg./kg. of BL-[…] or carbenicillin are shown below.

Pseudomonas aeruginosa [4] = test: Minimum Bactericidal Concentration of BL-P1937, at least 99.9% kill, three inoculum sizes; type: cell-based
Experimental: The bactericidal in vitro activity of BL-P1937 against Pseudomonas aeruginosa strains was also determined. Three tests were run, using initial inoculum sizes of 2.4 × 10^5, 1.6 × 10^5 and 1.4 × 10^5 cells/ml., respectively, and the M.B.C. was defined as the lowest concentration of antibiotic in mcg./ml. needed to kill at least 99.9% of viable Pseudomonas cells.

[5] = mice, 40 mg./kg. i.m., Literature values, cited from earlier work
[6] = mice, 40 mg./kg. i.m., Literature values, cited from earlier work; remark: listed apart in the source

Compound: CC1(C)S[C@@H]2[C@H](NC(=O)[C@H](NC(=O)c3n[nH]c(=O)[nH]c3=O)c3ccc(O)cc3)C(=O)N2[C@H]1C(=O)O [BL-P1908, sodium D(-)-6-(α-(1,2,4-triazine-3,5-dione-6-carboxamido)-4-hydroxyphenylacetamido)penicillanate]
- equally effective dosage, drug alone [1]: 5 mg/kg
- MIC (Cl. chauvoei): 4 µg/mL

Compound: CC1(C)S[C@@H]2[C@H](NC(=O)[C@H](NC(=O)c3n[nH]c(=S)[nH]c3=O)c3ccc(O)cc3)C(=O)N2[C@H]1C(=O)O [BL-P1937, sodium D(-)-6-(α-(1,2,4-triazine-3-thione-5-one-6-carboxamido)-4-hydroxyphenylacetamido)-penicillanate]
- MIC (Pseudomonas aeruginosa [2]; strain A9910, Test 1): 1 µg/mL
- MIC (Pseudomonas aeruginosa [2]; strain A9910, Test 2): 2 µg/mL
- MIC (Pseudomonas aeruginosa [2]; strain A9910, Test 3): 4 µg/mL
- MIC (Pseudomonas aeruginosa [2]; strain A9926, Test 1): 2 µg/mL
- MIC (Pseudomonas aeruginosa [2]; strain A9926, Test 2): 4 µg/mL
- MIC (Pseudomonas aeruginosa [2]; strain A9926, Test 3): 2 µg/mL
- MIC (Pseudomonas aeruginosa [2]; strain A20126, Test 2): 8 µg/mL
- MIC (Pseudomonas aeruginosa [2]; strain A20126, Test 3): 4 µg/mL
- MIC (Pseudomonas aeruginosa [2]; strain A20128, Test 1): 2 µg/mL
- MIC (Pseudomonas aeruginosa [2]; strain A20128, Test 2): 2 µg/mL
- MIC (Pseudomonas aeruginosa [2]; strain A20128, Test 3): 2 µg/mL
- MIC (Pseudomonas aeruginosa [2]; strain A20227, Test 1): 4 µg/mL
- MIC (Pseudomonas aeruginosa [2]; strain A20227, Test 2): 4 µg/mL
- MIC (Pseudomonas aeruginosa [2]; strain A20227, Test 3): 2 µg/mL
- MIC (Pseudomonas aeruginosa [2]; strain A20228, Test 1): 2 µg/mL
- MIC (Pseudomonas aeruginosa [2]; strain A20228, Test 2): 8 µg/mL
- MIC (Pseudomonas aeruginosa [2]; strain A20228, Test 3): 2 µg/mL
- MIC (Pseudomonas aeruginosa [2]; strain A20546, Test 1): 2 µg/mL
- MIC (Pseudomonas aeruginosa [2]; strain A20546, Test 2): 2 µg/mL
- MIC (Pseudomonas aeruginosa [2]; strain A20546, Test 3): 2 µg/mL
- MIC (Pseudomonas aeruginosa [2]; strain A20557, Test 1): 2 µg/mL
- MIC (Pseudomonas aeruginosa [2]; strain A20557, Test 2): 4 µg/mL
- MIC (Pseudomonas aeruginosa [2]; strain A20557, Test 3): 4 µg/mL
- MIC (Pseudomonas aeruginosa [2]; strain A20574, Test 1): 4 µg/mL
- MIC (Pseudomonas aeruginosa [2]; strain A20574, Test 2): 2 µg/mL
- MIC (Pseudomonas aeruginosa [2]; strain A20574, Test 3): 2 µg/mL
- MIC (Pseudomonas aeruginosa [2]; strain A20602, Test 1): 4 µg/mL
- MIC (Pseudomonas aeruginosa [2]; strain A20602, Test 2): 8 µg/mL
- MIC (Pseudomonas aeruginosa [2]; strain A20602, Test 3): 2 µg/mL
- MIC (Pseudomonas aeruginosa [2]; strain A20616, Test 1): 2 µg/mL
- MIC (Pseudomonas aeruginosa [2]; strain A20616, Test 2): 4 µg/mL
- MIC (Pseudomonas aeruginosa [2]; strain A20616, Test 3): 4 µg/mL
- MIC (Pseudomonas aeruginosa [2]; strain A20641, Test 1): 8 µg/mL
- MIC (Pseudomonas aeruginosa [2]; strain A20641, Test 2): 8 µg/mL
- MIC (Pseudomonas aeruginosa [2]; strain A20641, Test 3): 8 µg/mL
- MIC (Pseudomonas aeruginosa [2]; strain A20717, Test 1): 16 µg/mL
- MIC (Pseudomonas aeruginosa [2]; strain A20717, Test 2): 32 µg/mL
- MIC (Pseudomonas aeruginosa [2]; strain A20717, Test 3): 16 µg/mL
- MIC (Pseudomonas aeruginosa [2]; strain A20726, Test 1): 2 µg/mL
- MIC (Pseudomonas aeruginosa [2]; strain A20726, Test 2): 8 µg/mL
- MIC (Pseudomonas aeruginosa [2]; strain A20726, Test 3): 8 µg/mL
- MIC (Pseudomonas aeruginosa [2]; strain A21336, Test 1): 4 µg/mL
- MIC (Pseudomonas aeruginosa [2]; strain A21336, Test 2): 8 µg/mL
- MIC (Pseudomonas aeruginosa [2]; strain A21336, Test 3): 4 µg/mL
- concentration at 0.25 h ([3]; 15 min.): 19900 ng/mL
- concentration at 0.5 h ([3]; 30 min.): 10300 ng/mL
- concentration at 1 h ([3]; 60 min.): < 2200 ng/mL
- concentration at 1.5 h ([3]; 90 min.): < 2200 ng/mL
- MBC (Pseudomonas aeruginosa [4]; strain A9843A, Test 1, inoculum 2.4 × 10^5): 125 µg/mL
- MBC (Pseudomonas aeruginosa [4]; strain A9910, Test 1, inoculum 2.4 × 10^5, read-out: M.B.C.): 125 µg/mL
- MBC (Pseudomonas aeruginosa [4]; strain A9910, Test 2, inoculum 1.6 × 10^5, read-out: M.B.C.): 250 µg/mL
- MBC (Pseudomonas aeruginosa [4]; strain A9910, Test 3, inoculum 1.4 × 10^5, read-out: M.B.C.): 500 µg/mL
- MBC (Pseudomonas aeruginosa [4]; strain A9926, Test 1, inoculum 2.4 × 10^5, read-out: M.B.C.): 250 µg/mL
- MBC (Pseudomonas aeruginosa [4]; strain A9926, Test 2, inoculum 1.6 × 10^5, read-out: M.B.C.): 1000 µg/mL
- MBC (Pseudomonas aeruginosa [4]; strain A9926, Test 3, inoculum 1.4 × 10^5, read-out: M.B.C.): 250 µg/mL
- MBC (Pseudomonas aeruginosa [4]; strain A20126, Test 1, inoculum 2.4 × 10^5, read-out: M.B.C.): 16 µg/mL
- MBC (Pseudomonas aeruginosa [4]; strain A20126, Test 2, inoculum 1.6 × 10^5, read-out: M.B.C.): 63 µg/mL
- MBC (Pseudomonas aeruginosa [4]; strain A20126, Test 3, inoculum 1.4 × 10^5, read-out: M.B.C.): 63 µg/mL
- MBC (Pseudomonas aeruginosa [4]; strain A20128, Test 1, inoculum 2.4 × 10^5, read-out: M.B.C.): 16 µg/mL
- MBC (Pseudomonas aeruginosa [4]; strain A20128, Test 2, inoculum 1.6 × 10^5, read-out: M.B.C.): 16 µg/mL
- MBC (Pseudomonas aeruginosa [4]; strain A20128, Test 3, inoculum 1.4 × 10^5, read-out: M.B.C.): 63 µg/mL
- MBC (Pseudomonas aeruginosa [4]; strain A20227, Test 1, inoculum 2.4 × 10^5, read-out: M.B.C.): 63 µg/mL
- MBC (Pseudomonas aeruginosa [4]; strain A20227, Test 2, inoculum 1.6 × 10^5, read-out: M.B.C.): 8 µg/mL
- MBC (Pseudomonas aeruginosa [4]; strain A20227, Test 3, inoculum 1.4 × 10^5, read-out: M.B.C.): 16 µg/mL
- MBC (Pseudomonas aeruginosa [4]; strain A20228, Test 1, inoculum 2.4 × 10^5, read-out: M.B.C.): 125 µg/mL
- MBC (Pseudomonas aeruginosa [4]; strain A20228, Test 2, inoculum 1.6 × 10^5, read-out: M.B.C.): 500 µg/mL
- MBC (Pseudomonas aeruginosa [4]; strain A20228, Test 3, inoculum 1.4 × 10^5, read-out: M.B.C.): 250 µg/mL
- MBC (Pseudomonas aeruginosa [4]; strain A20546, Test 1, inoculum 2.4 × 10^5, read-out: M.B.C.): 250 µg/mL
- MBC (Pseudomonas aeruginosa [4]; strain A20546, Test 2, inoculum 1.6 × 10^5, read-out: M.B.C.): 1000 µg/mL
- MBC (Pseudomonas aeruginosa [4]; strain A20546, Test 3, inoculum 1.4 × 10^5, read-out: M.B.C.): 500 µg/mL
- MBC (Pseudomonas aeruginosa [4]; strain A20557, Test 1, inoculum 2.4 × 10^5, read-out: M.B.C.): 250 µg/mL
- MBC (Pseudomonas aeruginosa [4]; strain A20557, Test 2, inoculum 1.6 × 10^5, read-out: M.B.C.): 1000 µg/mL
- MBC (Pseudomonas aeruginosa [4]; strain A20557, Test 3, inoculum 1.4 × 10^5, read-out: M.B.C.): 500 µg/mL
- MBC (Pseudomonas aeruginosa [4]; strain A20574, Test 1, inoculum 2.4 × 10^5, read-out: M.B.C.): 250 µg/mL
- MBC (Pseudomonas aeruginosa [4]; strain A20574, Test 2, inoculum 1.6 × 10^5, read-out: M.B.C.): 250 µg/mL
- MBC (Pseudomonas aeruginosa [4]; strain A20574, Test 3, inoculum 1.4 × 10^5, read-out: M.B.C.): 500 µg/mL
- MBC (Pseudomonas aeruginosa [4]; strain A20602, Test 1, inoculum 2.4 × 10^5, read-out: M.B.C.): 250 µg/mL
- MBC (Pseudomonas aeruginosa [4]; strain A20602, Test 2, inoculum 1.6 × 10^5, read-out: M.B.C.): 500 µg/mL
- MBC (Pseudomonas aeruginosa [4]; strain A20602, Test 3, inoculum 1.4 × 10^5, read-out: M.B.C.): 500 µg/mL
- MBC (Pseudomonas aeruginosa [4]; strain A20616, Test 1, inoculum 2.4 × 10^5, read-out: M.B.C.): 125 µg/mL
- MBC (Pseudomonas aeruginosa [4]; strain A20616, Test 2, inoculum 1.6 × 10^5, read-out: M.B.C.): 250 µg/mL
- MBC (Pseudomonas aeruginosa [4]; strain A20616, Test 3, inoculum 1.4 × 10^5, read-out: M.B.C.): 500 µg/mL
- MBC (Pseudomonas aeruginosa [4]; strain A20641, Test 1, inoculum 2.4 × 10^5, read-out: M.B.C.): 125 µg/mL
- MBC (Pseudomonas aeruginosa [4]; strain A20641, Test 2, inoculum 1.6 × 10^5, read-out: M.B.C.): 250 µg/mL
- MBC (Pseudomonas aeruginosa [4]; strain A20641, Test 3, inoculum 1.4 × 10^5, read-out: M.B.C.): 250 µg/mL
- MBC (Pseudomonas aeruginosa [4]; strain A20717, Test 1, inoculum 2.4 × 10^5, read-out: M.B.C.): 500 µg/mL
- MBC (Pseudomonas aeruginosa [4]; strain A20717, Test 2, inoculum 1.6 × 10^5, read-out: M.B.C.): 1000 µg/mL
- MBC (Pseudomonas aeruginosa [4]; strain A20717, Test 3, inoculum 1.4 × 10^5, read-out: M.B.C.): > 1000 µg/mL
- MBC (Pseudomonas aeruginosa [4]; strain A20726, Test 1, inoculum 2.4 × 10^5, read-out: M.B.C.): 32 µg/mL
- MBC (Pseudomonas aeruginosa [4]; strain A20726, Test 2, inoculum 1.6 × 10^5, read-out: M.B.C.): 250 µg/mL
- MBC (Pseudomonas aeruginosa [4]; strain A20726, Test 3, inoculum 1.4 × 10^5, read-out: M.B.C.): 500 µg/mL
- MBC (Pseudomonas aeruginosa [4]; strain A21336, Test 1, inoculum 2.4 × 10^5, read-out: M.B.C.): 250 µg/mL
- MBC (Pseudomonas aeruginosa [4]; strain A21336, Test 2, inoculum 1.6 × 10^5, read-out: M.B.C.): 500 µg/mL
- MBC (Pseudomonas aeruginosa [4]; strain A21336, Test 3, inoculum 1.4 × 10^5, read-out: M.B.C.): 500 µg/mL

Compound: CC1(C)S[C@@H]2[C@H](NC(=O)C(C(=O)O)c3ccccc3)C(=O)N2[C@H]1C(=O)O (some centres unmarked) [Carbenicillin, reference compound]
- Blood Level ([5]; 15 min.): 18.1 µg/mL
- Blood Level ([5]; 30 min.): 8.1 µg/mL
- Blood Level ([5]; 60 min.): < 4.6 µg/mL
- Blood Level ([5]; 90 min.): < 4.6 µg/mL
- Blood Level ([6]; 15 min.): 18.1 µg/mL
- Blood Level ([6]; 30 min.): 8.1 µg/mL
- Blood Level ([6]; 60 min.): < 4.6 µg/mL
- Blood Level ([6]; 90 min.): < 4.6 µg/mL

From patent publication US4081441A, “Antibacterial agents” (priority 1977, dated 1978)
